Measurements published in ChEMBL document CHEMBL2057094, “Inhibition of VEGF transcription through blockade of the hypoxia inducible factor-1α-p300 interaction by a small molecule” (Bioorg Med Chem Lett, 2012).
Calls of active or inactive are those of the source. No cut-off for these calls is given here.

What was measured:
[1] = target: Hypoxia-inducible factor 1-alpha (Homo sapiens) (UniProt Q16665); experiment: Effect on stabilization of HIF-1alpha in deferoxamine treated human HeLa cells at 50 to 500 uM by Western blot analysis; assay type: cell-based
Sequence of Hypoxia-inducible factor 1-alpha (Homo sapiens) (Q16665 whole entry, looked up, the tested form may be a part): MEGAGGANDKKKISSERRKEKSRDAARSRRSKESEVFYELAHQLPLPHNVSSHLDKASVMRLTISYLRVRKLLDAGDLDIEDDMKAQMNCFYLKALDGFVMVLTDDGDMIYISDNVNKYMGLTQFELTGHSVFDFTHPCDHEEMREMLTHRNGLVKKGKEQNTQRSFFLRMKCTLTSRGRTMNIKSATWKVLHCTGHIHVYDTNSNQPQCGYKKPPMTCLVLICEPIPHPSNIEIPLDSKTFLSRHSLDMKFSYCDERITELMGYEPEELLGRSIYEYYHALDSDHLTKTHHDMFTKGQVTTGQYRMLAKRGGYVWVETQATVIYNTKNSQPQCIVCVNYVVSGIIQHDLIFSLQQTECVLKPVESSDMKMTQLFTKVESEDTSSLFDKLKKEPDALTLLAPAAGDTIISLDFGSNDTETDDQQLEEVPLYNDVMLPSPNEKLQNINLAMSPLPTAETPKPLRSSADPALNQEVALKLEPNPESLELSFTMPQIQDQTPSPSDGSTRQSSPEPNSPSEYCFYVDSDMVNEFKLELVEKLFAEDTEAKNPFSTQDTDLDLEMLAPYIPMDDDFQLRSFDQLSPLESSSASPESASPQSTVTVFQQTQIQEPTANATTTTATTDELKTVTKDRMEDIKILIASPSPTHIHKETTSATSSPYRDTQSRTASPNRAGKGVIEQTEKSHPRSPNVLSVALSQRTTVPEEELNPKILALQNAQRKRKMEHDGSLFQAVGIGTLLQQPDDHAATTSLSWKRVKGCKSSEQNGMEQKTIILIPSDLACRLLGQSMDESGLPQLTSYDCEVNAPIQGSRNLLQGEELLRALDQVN

[2] = target: Hypoxia-inducible factor 1-alpha (Homo sapiens) (UniProt Q16665); experiment: Inhibition of HIF-1alpha in deferoxamine treated human HeLa cells assessed as reduction of VEGF mRNA level at 100 uM after 5 hrs by RT-PCR analysis; assay type: cell-based
[3] = target: T1, Histone acetyltransferase p300/Hypoxia-inducible factor 1-alpha (Homo sapiens, UniProt Q09472+Q16665); experiment: Inhibition of human C-terminal activation domain of HIF-1alpha/CH1 domain of GST-p300 interaction using F-786-826 by fluorescence polarization based assay; assay type: protein-complex assay
[4] = target: T1, Histone acetyltransferase p300/Hypoxia-inducible factor 1-alpha; experiment: Inhibition of human C-terminal activation domain of HIF-1alpha/CH1 domain of GST-p300 interaction using F-786-826 at 200 uM by fluorescence polarization based assay; assay type: protein-complex assay
Target sequence in this assay (Q09472 2-2414 limits assumed): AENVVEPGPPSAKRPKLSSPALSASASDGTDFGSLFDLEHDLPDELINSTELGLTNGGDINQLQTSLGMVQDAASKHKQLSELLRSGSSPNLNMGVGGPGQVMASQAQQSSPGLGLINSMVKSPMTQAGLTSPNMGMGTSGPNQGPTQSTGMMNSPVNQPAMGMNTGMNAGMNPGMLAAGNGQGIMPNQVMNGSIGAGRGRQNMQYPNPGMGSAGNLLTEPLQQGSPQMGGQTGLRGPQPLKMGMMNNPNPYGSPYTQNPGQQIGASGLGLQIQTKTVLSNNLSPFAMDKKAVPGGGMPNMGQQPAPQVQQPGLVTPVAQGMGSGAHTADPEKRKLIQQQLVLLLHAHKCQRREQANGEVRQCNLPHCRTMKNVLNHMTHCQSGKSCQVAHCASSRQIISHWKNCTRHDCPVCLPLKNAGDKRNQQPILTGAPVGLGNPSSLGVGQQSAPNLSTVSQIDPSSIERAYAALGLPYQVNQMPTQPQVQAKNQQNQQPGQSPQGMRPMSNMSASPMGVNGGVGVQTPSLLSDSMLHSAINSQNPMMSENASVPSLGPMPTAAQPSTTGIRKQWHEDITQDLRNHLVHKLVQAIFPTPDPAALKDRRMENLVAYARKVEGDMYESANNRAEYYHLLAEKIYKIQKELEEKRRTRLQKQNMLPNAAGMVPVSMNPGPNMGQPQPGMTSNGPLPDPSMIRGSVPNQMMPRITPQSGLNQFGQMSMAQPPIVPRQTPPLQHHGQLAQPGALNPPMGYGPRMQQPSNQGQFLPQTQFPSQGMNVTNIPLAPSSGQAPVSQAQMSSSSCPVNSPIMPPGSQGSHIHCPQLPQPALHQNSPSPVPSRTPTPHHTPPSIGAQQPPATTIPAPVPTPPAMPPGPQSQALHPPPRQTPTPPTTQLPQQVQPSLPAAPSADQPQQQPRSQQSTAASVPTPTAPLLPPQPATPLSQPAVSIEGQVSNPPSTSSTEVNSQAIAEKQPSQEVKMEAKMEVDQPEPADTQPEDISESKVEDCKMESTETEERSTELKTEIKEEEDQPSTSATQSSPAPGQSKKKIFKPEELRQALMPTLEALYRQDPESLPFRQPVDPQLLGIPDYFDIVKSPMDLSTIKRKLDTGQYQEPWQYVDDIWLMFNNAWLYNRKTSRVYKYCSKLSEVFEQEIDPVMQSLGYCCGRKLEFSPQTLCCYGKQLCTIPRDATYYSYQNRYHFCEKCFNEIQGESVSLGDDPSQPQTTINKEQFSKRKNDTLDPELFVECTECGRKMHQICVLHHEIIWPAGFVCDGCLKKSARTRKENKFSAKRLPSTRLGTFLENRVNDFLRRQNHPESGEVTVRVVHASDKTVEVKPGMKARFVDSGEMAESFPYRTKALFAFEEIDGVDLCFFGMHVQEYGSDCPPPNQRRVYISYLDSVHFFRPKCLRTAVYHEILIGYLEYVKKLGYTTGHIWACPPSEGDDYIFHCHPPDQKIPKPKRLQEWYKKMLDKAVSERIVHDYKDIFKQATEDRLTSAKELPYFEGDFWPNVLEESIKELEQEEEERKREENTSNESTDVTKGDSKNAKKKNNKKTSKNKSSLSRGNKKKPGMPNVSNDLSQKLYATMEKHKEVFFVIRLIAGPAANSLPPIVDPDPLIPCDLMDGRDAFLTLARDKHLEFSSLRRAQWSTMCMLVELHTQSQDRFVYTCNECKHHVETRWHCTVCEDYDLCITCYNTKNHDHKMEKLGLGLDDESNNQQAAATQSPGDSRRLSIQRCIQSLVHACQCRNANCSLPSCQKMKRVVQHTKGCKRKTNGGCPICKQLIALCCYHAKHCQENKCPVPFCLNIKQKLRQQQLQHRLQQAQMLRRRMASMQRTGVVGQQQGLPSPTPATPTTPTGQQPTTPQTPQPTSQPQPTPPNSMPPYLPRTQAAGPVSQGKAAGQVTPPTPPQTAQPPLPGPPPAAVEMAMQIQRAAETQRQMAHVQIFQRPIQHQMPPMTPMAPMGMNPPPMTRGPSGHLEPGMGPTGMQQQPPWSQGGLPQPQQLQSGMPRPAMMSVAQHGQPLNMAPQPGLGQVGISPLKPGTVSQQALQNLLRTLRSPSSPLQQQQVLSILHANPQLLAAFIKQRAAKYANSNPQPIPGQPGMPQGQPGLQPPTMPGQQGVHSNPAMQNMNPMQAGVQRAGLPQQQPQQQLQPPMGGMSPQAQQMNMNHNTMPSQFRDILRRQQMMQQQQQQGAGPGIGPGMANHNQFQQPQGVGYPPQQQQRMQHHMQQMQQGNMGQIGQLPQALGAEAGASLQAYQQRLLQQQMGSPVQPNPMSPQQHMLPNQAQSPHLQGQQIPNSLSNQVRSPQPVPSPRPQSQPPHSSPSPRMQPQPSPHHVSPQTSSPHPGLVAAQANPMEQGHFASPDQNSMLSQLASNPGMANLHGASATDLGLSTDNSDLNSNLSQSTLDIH
Target sequence in this assay (Q16665 whole entry partner, the tested form may be a part): as the sequence (Q16665 whole entry, looked up, the tested form may be a part) above

[5] = tested on: HeLa; experiment: Cytotoxicity against human deferoxamine treated HeLa cells assessed as decrease of cell viability after 48 hrs by MTT assay; assay type: functional, cell-based
[6] = tested on: HeLa; experiment: Cytotoxicity against human deferoxamine treated HeLa cells assessed as decrease of cell viability after 24 hrs by MTT assay relative to control; assay type: functional
[7] = target: T1, Histone acetyltransferase p300/Hypoxia-inducible factor 1-alpha; experiment: Inhibition of deferoxamine-induced HIF-1alpha/resin-bound GST-p300 interaction human HeLa cells using coomasie blue staining by GST pull-down assay; assay type: cell-based
Target sequence in this assay (Q09472 2-2414 limits assumed): as the sequence (Q09472 2-2414 limits assumed) above
Target sequence in this assay (Q16665 whole entry partner, the tested form may be a part): as the sequence (Q16665 whole entry, looked up, the tested form may be a part) above

CC(C)Cc1cc(CNC(=O)N2CCN(CC(=O)Nc3ccccc3Cl)CC2)nn1-c1ccccc1.Cl
Activity [1]: inactive | inhibition [2]: Active | IC50 [3]: 107 µM | inhibition [4]: 80% | Activity [5]: Dose-dependent effect | Activity [6]: 50% | inhibition [7]: Active
